Reference: patent US20240109895A1, “OXASPIRO SUBSTITUTED PYRROLOPYRAZOLE DERIVATIVE, INTERMEDIATE THEREOF, AND PREPARATION METHOD THEREFOR” (SHANGHAI HAIYAN PHARMACEUTICAL TECHNOLOGY CO., LTD., priority 2020, published 2024)

Assays:
cAMP = experiment: HTRF-cAMP cell assay
β-arrestin = β-arrestin cell assay

Which EC50 (cAMP; 0.75 h, read-out: cAMP EC50(nM)) does the source give for CC(C)[C@@H]1C[C@H](NCC[C@@]2(c3ccccn3)CCOC3(CCCC3)C2)c2ccnn21 [Compound I-1] here?
The EC50 was 6 nM.

And the Emax (cAMP; read-out: cAMP Emax(%) Morphine is 100%)?
Its Emax is 86.4%.

And the Emax (β-arrestin; 1.5 h, read-out: β-arrestin Emax(%) Morphine is 100%)?
The Emax was 1.3%.

What about the “bias (cAMP versus β-arrestin)” value (β-arrestin; comparison of Table 1 and Table 2) of the same compound?
The value was “good bias”.
